Values quoted from earlier work as cited in patent publication US8785427B2, “Enzymatic process for obtaining 17 alpha-monoesters of cortexolone and/or its 9,11-dehydroderivatives” (Cosmo Dermatos Srl, priority 2007, dated 2014).

Conditions: both in vitro and in vivo on the animal; described in EP1421099

| Compound | antiandrogenic biological activity |
| --- | --- |
| CCC(=O)O[C@]1(C(=O)CO)CC[C@H]2[C@@H]3CCC4=CC(=O)CC[C@]4(C)[C@H]3CC[C@@]21C [cortexolone 17α-propionate] | high antiandrogenic biological activity |
| CCCC(=O)O[C@]1(C(=O)CO)CC[C@H]2[C@@H]3CCC4=CC(=O)CC[C@]4(C)C3=CC[C@@]21C [9,11-dehydro-cortexolone-17-α-butanoate, 9,11-Dehydro-Cortexolone-17α-Butanoate] | high antiandrogenic biological activity |
